Assay results: PubChem BioAssay AID256 (DTP/NCI, 2004)
Inconclusive results and toxic doses are left out. The calls were made as follows: active = survival T/C of 150% or more; inactive = T/C below 125% in these data.

Test system: CD2F1 mice, L1210 leukemia ip, survival T/C
Test: NCI In Vivo Anticancer Drug Screen. Data for tumor model L1210 Leukemia (intraperitoneal) in CD2F1 (CDF1) mice
Settings: higher = longer survival
In short: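 Each value reflects a quotient of treated over vehicle control outcomes in mice with a transplanted tumor.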

[1] = endpoint: mean survival time, dose: 100.0 mg/kg/injection, schedule: Q04DX003 (ip), vehicle: saline with Tween-80
[2] = endpoint: mean survival time, dose: 200.0 mg/kg/injection, schedule: Q04DX003 (ip), vehicle: saline with Tween-80
[3] = endpoint: mean survival time, dose: 400.0 mg/kg/injection, schedule: Q04DX003 (ip), vehicle: saline with Tween-80
[4] = endpoint: mean survival time, dose: 100.0 mg/kg/injection, schedule: Q01DX009 (ip), vehicle: saline
[5] = endpoint: mean survival time, dose: 200.0 mg/kg/injection, schedule: Q01DX009 (ip), vehicle: saline
[6] = endpoint: mean survival time, dose: 100.0 mg/kg/injection, schedule: Q04DX002 (ip), vehicle: saline with Tween-80
[7] = endpoint: mean survival time, dose: 200.0 mg/kg/injection, schedule: Q04DX002 (ip), vehicle: saline with Tween-80
[8] = endpoint: mean survival time, dose: 400.0 mg/kg/injection, schedule: Q04DX002 (ip), vehicle: saline with Tween-80
[9] = endpoint: mean survival time, dose: 100.0 mg/kg/injection, schedule: Q01DX009 (ip), vehicle: saline with Tween-80
[10] = endpoint: mean survival time, dose: 200.0 mg/kg/injection, schedule: Q01DX009 (ip), vehicle: saline with Tween-80

Measured: T/C

O=C(c1ccccc1)C(O)c1ccccc1 (stereo not given)
inactive: [1] 90 % of control | [2] 96 % of control | [3] 97 % of control

N=[N+]=CC(=O)CC(N)C(=O)O (stereo not given)
inactive: endpoint: median survival time, dose: 400.0 mg/kg/injection, schedule: Q01DX001 (ip), vehicle: saline 111 % of control | endpoint: median survival time, dose: 800.0 mg/kg/injection, schedule: Q01DX001 (ip), vehicle: saline 112 % of control | endpoint: median survival time, dose: 1600.0 mg/kg/injection, schedule: Q01DX001 (ip), vehicle: saline 25 % of control

CCOC(=O)c1ncc(Cl)cc1N
inactive: endpoint: mean survival time, dose: 50.0 mg/kg/injection, schedule: Q01DX009 (ip), vehicle: Klucel (hydroxypropylcellulose) (HPC) 97 % of control

O=[N+]([O-])c1ccc(Sc2ccc([N+](=O)[O-])cc2)cc1
inactive: [1] 88 % of control | [2] 92 % of control

CN1CCC(=C(C#N)c2ccccc2)CC1
inactive: endpoint: mean survival time, dose: 12.5 mg/kg/injection, schedule: Q01DX009 (ip), vehicle: saline 100 % of control | endpoint: mean survival time, dose: 25.0 mg/kg/injection, schedule: Q01DX009 (ip), vehicle: saline 102 % of control

C[N+](C)(C)CCO
inactive: [4] 96 % of control | [5] 102 % of control | endpoint: mean survival time, dose: 400.0 mg/kg/injection, schedule: Q01DX009 (ip), vehicle: saline 90 % of control

O=C(OCC(I)CC(F)(F)C(F)(F)F)c1ccc2cc(C(=O)OC(I)CC(F)(F)C(F)(F)F)ccc2c1 (stereo not given)
inactive: endpoint: mean survival time, dose: 75.0 mg/kg/injection, schedule: Q01DX001 (ip), vehicle: other 101 % of control | endpoint: mean survival time, dose: 150.0 mg/kg/injection, schedule: Q01DX001 (ip), vehicle: other 91 % of control | endpoint: mean survival time, dose: 300.0 mg/kg/injection, schedule: Q01DX001 (ip), vehicle: other 97 % of control

Nc1ccc(S(=O)(=O)c2ccc(N3CCOCC3)c(N)c2)cc1
inactive: [6] 105 % of control | [7] 94 % of control | [8] 97 % of control

OCCOc1ccc(Cl)cc1
inactive: [9] 104 % of control | [1] 96 % of control | [10] 100 % of control | [2] 96 % of control | [3] 103 % of control

NCCSCC(N)C(=O)O (stereo not given)
inactive: endpoint: mean survival time, dose: 50.0 mg/kg/injection, schedule: Q01DX009 (ip), vehicle: saline 100 % of control | [4] 100 % of control | [5] 104 % of control

CN1CCC23CC=CCC2C1Cc1ccc([N+](=O)[O-])cc13 (stereo not given)
inactive: endpoint: mean survival time, dose: 6.25 mg/kg/injection, schedule: Q01DX001 (ip), vehicle: saline with Tween-80 103 % of control | endpoint: mean survival time, dose: 12.5 mg/kg/injection, schedule: Q01DX001 (ip), vehicle: saline with Tween-80 105 % of control | endpoint: mean survival time, dose: 25.0 mg/kg/injection, schedule: Q01DX001 (ip), vehicle: saline with Tween-80 105 % of control

CCOC(=O)C1(C(=O)OCC)CCC2Nc3ccccc3C(=O)N21 (stereo not given)
inactive: endpoint: mean survival time, dose: 100.0 mg/kg/injection, schedule: Q01DX001 (ip), vehicle: Klucel (hydroxypropylcellulose) (HPC) 108 % of control | endpoint: mean survival time, dose: 200.0 mg/kg/injection, schedule: Q01DX001 (ip), vehicle: Klucel (hydroxypropylcellulose) (HPC) 108 % of control | endpoint: mean survival time, dose: 400.0 mg/kg/injection, schedule: Q01DX001 (ip), vehicle: Klucel (hydroxypropylcellulose) (HPC) 96 % of control

Nc1nc(N)c(N=Nc2ccc(SCC(=O)O)cc2)c(=O)[nH]1
inactive: [9] 100 % of control | [10] 94 % of control | endpoint: mean survival time, dose: 400.0 mg/kg/injection, schedule: Q01DX009 (ip), vehicle: saline with Tween-80 101 % of control

CC(=O)Nc1ccc(CN(C)N=Nc2ccc(C(=O)O)cc2)cc1
inactive: endpoint: mean survival time, dose: 25.0 mg/kg/injection, schedule: Q01DX009 (ip), vehicle: water 95 % of control | endpoint: mean survival time, dose: 50.0 mg/kg/injection, schedule: Q01DX009 (ip), vehicle: water 97 % of control | endpoint: mean survival time, dose: 100.0 mg/kg/injection, schedule: Q01DX009 (ip), vehicle: water 106 % of control | endpoint: mean survival time, dose: 200.0 mg/kg/injection, schedule: Q01DX009 (ip), vehicle: water 86 % of control | endpoint: mean survival time, dose: 400.0 mg/kg/injection, schedule: Q01DX009 (ip), vehicle: water 95 % of control

O=C(O)C1C2C=CC3(CN(CCc4ccccc4)C(=O)C13)O2 (stereo not given)
inactive: [6] 95 % of control | [7] 95 % of control | [8] 103 % of control
